This passage reports Kd results from paper doi:10.1101/2023.12.22.573011v1 (biorxiv, 2023).

Broadly, the Kd is the free concentration of one partner at which half of the binding sites on the other are occupied at equilibrium, for simple one-to-one binding.

The target of the assay is full-length TDP-43 (TDP-43) (Homo sapiens, UniProt Q13148). Put plainly: isothermal titration calorimetry. The format is binding.
full-length TDP-43 (TDP-43), sequence (Q13148 whole entry): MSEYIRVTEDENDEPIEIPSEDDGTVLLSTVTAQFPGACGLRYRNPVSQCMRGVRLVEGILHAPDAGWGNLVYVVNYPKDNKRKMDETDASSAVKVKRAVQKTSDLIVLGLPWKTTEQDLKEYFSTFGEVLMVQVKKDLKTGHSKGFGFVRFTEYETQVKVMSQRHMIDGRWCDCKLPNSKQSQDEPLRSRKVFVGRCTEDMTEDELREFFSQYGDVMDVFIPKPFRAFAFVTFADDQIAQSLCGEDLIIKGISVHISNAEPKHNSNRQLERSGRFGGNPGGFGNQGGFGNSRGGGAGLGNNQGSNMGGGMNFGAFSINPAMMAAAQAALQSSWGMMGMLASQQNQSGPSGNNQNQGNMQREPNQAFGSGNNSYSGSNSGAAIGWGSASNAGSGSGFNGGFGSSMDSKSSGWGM

Compound `O=C(O[C@@H]1Cc2c(O)cc(O)cc2O[C@@H]1c1cc(O)c(O)c(O)c1)c1cc(O)c(O)c(O)c1` [epigallocatechin gallate] had a Kd of 7.8 µM.
